Read-outs that look alike come from different tables or passages of the source.
Assays:
human topoisomerase I = biological target: T1, human topoisomerase I (Homo sapiens, UniProt P11387); assay: Test A: topoisomerase I-mediated DNA cleavage assay; format: biochemical; conditions: relative effective concentration, relative to topotecan = 1, producing the same cleavage of plasmid DNA in presence of human TOP1
T1 construct: unnamed fusion partner (recombinant fusion protein, T7 expression system); made in house; host or cells: E. coli
T1 sequence (P11387 1-765): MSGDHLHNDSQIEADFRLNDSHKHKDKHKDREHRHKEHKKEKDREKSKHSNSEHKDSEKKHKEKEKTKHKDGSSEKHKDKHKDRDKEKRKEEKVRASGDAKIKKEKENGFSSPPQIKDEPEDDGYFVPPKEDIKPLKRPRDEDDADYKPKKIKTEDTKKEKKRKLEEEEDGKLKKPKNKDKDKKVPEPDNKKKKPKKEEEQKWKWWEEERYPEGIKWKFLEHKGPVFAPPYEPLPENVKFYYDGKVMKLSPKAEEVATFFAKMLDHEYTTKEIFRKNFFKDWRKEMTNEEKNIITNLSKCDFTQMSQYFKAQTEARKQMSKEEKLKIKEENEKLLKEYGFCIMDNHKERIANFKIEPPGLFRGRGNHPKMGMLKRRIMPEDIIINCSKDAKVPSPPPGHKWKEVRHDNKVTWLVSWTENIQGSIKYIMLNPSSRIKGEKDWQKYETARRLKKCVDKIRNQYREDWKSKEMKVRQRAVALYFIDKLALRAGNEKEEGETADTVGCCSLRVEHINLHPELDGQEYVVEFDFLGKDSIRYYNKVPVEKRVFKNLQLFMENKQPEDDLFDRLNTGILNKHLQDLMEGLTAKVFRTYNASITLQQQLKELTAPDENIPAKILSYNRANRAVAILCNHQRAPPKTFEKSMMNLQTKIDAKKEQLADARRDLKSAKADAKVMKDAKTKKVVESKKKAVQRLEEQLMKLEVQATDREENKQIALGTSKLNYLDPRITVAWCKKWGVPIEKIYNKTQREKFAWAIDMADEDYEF
Description: Test A. Topoisomerase-Mediated DNA Cleavage Assays
Human topoisomerase I was expressed in E. Coli and isolated as a recombinant fusion protein using a T7 expression system as described by Gatto, B., et al., Cancer Res. 1996, 56, 2795–2800. Plasmid YepG was purified by the alkali lysis method followed by phenol deproteination and CsCl/ethidium isopycnic centrifugation method as described by Maniatis, T., et al., J. Molecular Cloning, a Laboratory Manual; Cold Spring Harbor Laboratory: Cold Spring Harbor, N.Y. 1982; pp 149–185. The end-labeling of the plasmid was accomplished by digestion with a restriction enzyme followed by end-filling with Klenow polymerase as previously described by Tewey, K. M., et al., Science 1984, 226, 466–468. The cleavage assays were performed as previously reported (see Gatto, B., et al., Cancer Res. 1996, 56, 2795–2800; and Wang, H., et al., Biochemistry 2001, 40; 3316–3323). The drug and the DNA in presence of topoisomerase I was incubated for 30 minutes at 37° C. The reactions were terminated by the addition of 5 μl of 5% SDS and 1 mg/ml […] with an additional 1 hour of incubation at 37° C. Samples were then alkali denatured by the addition of NaOH, EDTA, sucrose, and bromophenol blue to final concentrations of 75 mM, 2.5%, and 0.05 mg/ml, respectively, prior to loading onto a neutral agarose gel. After development of the gels, typically 24-hour exposure was used to obtain autoradiograms outlining the extent of DNA fragmentation.

RPMI8402 cells = assay: Test B: MTT-microtiter plate tetrazolinium cytotoxicity assay, RPMI8402; format: cell-based, human; conditions: RPMI 8402, 96 h, read-out: Cytotoxicity (IC50; μM) RPMI8402
Protocol: (§1) The cytotoxicity was determined using the MTT-microtiter plate tetrazolinium cytotoxicity assay (MTA—See Mosmann, T., J. Immunol. Methods 1983, 65, 55–63; Carmichael, J., et al., Cancer Res. 1987, 47, 936–942; and Denizot, F., et al., J. Immunol. Methods 1986, 89, 271–277). […] The cytotoxicity assay was performed using 96-well microtiter plates. Cells were grown in suspension at 37° C. in 5% CO2 and maintained by regular passage in RPMI medium supplemented with 10% heat- inactivated fetal bovine serum, L-glutamine (2 mM), penicillin (100 U/mL), and streptomycin (0.1 mg/mL). […] For determination of IC50, cells were exposed continuously for 4 days to varying concentrations of drug, and MTT assays were performed at the end of the fourth day. […] All assays were performed at least twice in 6 replicate wells.

CPT-K5 cells = assay: Test B: MTT-microtiter plate tetrazolinium cytotoxicity assay, CPT-K5; format: cell-based; conditions: Homo sapiens, CPT-K5, 96 h, read-out: Cytotoxicity (IC50; μM) CPT-K5
Protocol: as §1

Row | Structure (SMILES) | TOP1-mediated DNA Cleavage (REC) (human topoisomerase I) | IC50 (RPMI8402 cells; human lymphoblast RPMI8402, 4 days of continuous drug exposure, MTT) | IC50 (RPMI8402 cells; Homo sapiens) | IC50 (CPT-K5 cells) | melting point
1 | CC[C@@]1(O)C(=O)OCc2c1cc1n(c2=O)Cc2cc3ccccc3nc2-1 [Camptothecin, reference compound] | 0.5 | 0.005 µM | – | – | –
2 | CN(C)CCn1c(=O)c2ccccc2c2cnc3cc4c(cc3c21)OCO4 [Compound 3, 2,3-Methylenedioxy-5-[2-(N,N-dimethylamino)ethyl]-5H-dibenzo[c,h]1,6-naphthyridin-6-one, reference compound] | 6 | – | 0.06 µM | 0.95 µM | –
3 | CN(C)CCn1c(=O)c2cc([N+](=O)[O-])ccc2c2cnc3cc4c(cc3c21)OCO4 [Compound 4a, 8-Nitro-2,3-methylenedioxy-5-[2-(N,N-dimethylamino)ethyl]-5H-dibenzo[c,h][1,6]naphthyridin-6-one] | 0.2 | – | 0.003 µM | 0.33 µM | 219 to 220 °C
4 | CN(C)CCn1c(=O)c2cc(N)ccc2c2cnc3cc4c(cc3c21)OCO4 [Compound 4b, 8-Amino-2,3-methylenedioxy-5-[2-(N,N-dimethylamino)ethyl]-5H-dibenzo[c,h][1,6]naphthyridin-6-one] | 8.0 | – | 0.08 µM | 0.38 µM | 245 to 246 °C
5 | CN(C)CCn1c(=O)c2ccc([N+](=O)[O-])cc2c2cnc3cc4c(cc3c21)OCO4 [Compound 5a, 9-Nitro-2,3-methylenedioxy-5-[2-(N,N-Dimethylamino)Ethyl]-5H-dibenzo[c,h][1,6]naphthyridin-6-one] | 0.1 | – | 0.002 µM | 2.8 µM | 258 to 259 °C
6 | CN(C)CCn1c(=O)c2ccc(N)cc2c2cnc3cc4c(cc3c21)OCO4 [Compound 5b, 9-Amino-2,3-methylenedioxy-5-[2-(N,N-dimethylamino)ethyl]-5H-dibenzo[c,h][1,6]naphthyridin-6-one] | 0.5 | – | 0.025 µM | 1 µM | 300 to 301 °C
7 | CN(C)CCn1c(=O)c2cccc([N+](=O)[O-])c2c2cnc3cc4c(cc3c21)OCO4 [Compound 6a, 10-Nitro-2,3-methylenedioxy-5-[2-(N,N-dimethylamino)Ethyl]-5H-dibenzo[c,h][1,6]naphthyridin-6-one] | 1000 | – | 4.8 µM | > 10 µM | 189 to 190 °C
8 | CN(C)CCn1c(=O)c2cccc(N)c2c2cnc3cc4c(cc3c21)OCO4 [Compound 6b, 10-Amino-2,3-methylenedioxy-5-[2-(N,N-dimethylamino)ethyl]-5H-dibenzo[c,h][1,6]naphthyridin-6-one] | 15 | – | 0.34 µM | 3.2 µM | 223 to 224 °C
9 | CC[C@@]1(O)C(=O)OCc2c1cc1n(c2=O)Cc2cc3c(CN(C)C)c(O)ccc3nc2-1 [Topotecan, reference compound] | 1 | – | 0.012 µM | > 50 µM | –
10 | COc1cc([C@@H]2c3cc4c(cc3[C@@H](O[C@@H]3O[C@@H]5CO[C@@H](c6cccs6)O[C@H]5[C@H](O)[C@H]3O)[C@H]3COC(=O)[C@H]23)OCO4)cc(OC)c1O [VM-26, reference compound] | >1000 | – | 0.22 µM | 0.28 µM | –

Reference: US6989387B2, “Nitro and amino substituted topoisomerase agents” (Rutgers, The State University of New Jersey, priority 2002, dated 2006)
